In patent US8530667B2, “Herbicides” (Syngenta Limited, priority 2007, dated 2013):

Assays:
Format in all cases: in vivo
[1] = system: Alopecurus myosuroides (ALOMY); assay: Example A pre-emergence herbicidal activity, glasshouse pot test; conditions: evaluated 19 or 20 days later, read-out: Pre-Emergence Activity ALOMY (100=total damage to plant; 0=no damage to plant); for pest or weed control at 250 g/ha: Rate 250 g/ha; for pest or weed control at 500 g/ha: Rate 500 g/ha
Protocol: (§1) Seeds of a variety of test species were sown in standard soil in pots. After cultivation for one day (pre-emergence) or after 10 days cultivation (post-emergence) under controlled conditions in a glasshouse, the plants were sprayed with an aqueous spray solution derived from the formulation of the technical active ingredient in 0.6 ml acetone and 45 ml formulation solution containing 10.6% Emulsogen EL (Registry number 61791-12-6), 42.2% N-methylpyrrolidone, 42.2% dipropylene glycol monomethyl ether (Registry number 34590-94-8) and 0.2% X-77 (Registry number 11097-66-8). The test plants were then grown in a greenhouse under optimum conditions until, 14 or 15 days later for post-emergence and 19 or 20 days for pre-emergence, the test was evaluated (100=total damage to plant; 0=no damage to plant). Alopecurus myosuroides (ALOMY), Avena fatua (AVEFA), Lolium perenne (LOLPE), Setaria faberi (SETFA), Digitaria sanguinalis (DIGSA), Echinochloa crus-galli (ECHCG)

Avena fatua (AVEFA) [2] = assay: as above; conditions: evaluated 19 or 20 days later, read-out: Pre-Emergence Activity AVEFA (100=total damage to plant; 0=no damage to plant); for pest or weed control at 250 g/ha: Rate 250 g/ha; for pest or weed control at 500 g/ha: Rate 500 g/ha
Protocol: as §1

[3] = system: Digitaria sanguinalis (DIGSA); assay: as above; conditions: evaluated 19 or 20 days later, read-out: Pre-Emergence Activity DIGSA (100=total damage to plant; 0=no damage to plant); for pest or weed control at 250 g/ha: Rate 250 g/ha; for pest or weed control at 500 g/ha: Rate 500 g/ha
Protocol: as §1

[4] = system: Echinochloa crus-galli (ECHCG); assay: as above; conditions: evaluated 19 or 20 days later, read-out: Pre-Emergence Activity ECHCG (100=total damage to plant; 0=no damage to plant); for pest or weed control at 250 g/ha: Rate 250 g/ha; for pest or weed control at 500 g/ha: Rate 500 g/ha
Protocol: as §1

Lolium perenne (LOLPE) [5] = assay: as above; conditions: evaluated 19 or 20 days later, read-out: Pre-Emergence Activity LOLPE (100=total damage to plant; 0=no damage to plant); for pest or weed control at 250 g/ha: Rate 250 g/ha; for pest or weed control at 500 g/ha: Rate 500 g/ha
Protocol: as §1

Setaria faberi (SETFA) [6] = assay: as above; conditions: evaluated 19 or 20 days later, read-out: Pre-Emergence Activity SETFA (100=total damage to plant; 0=no damage to plant); for pest or weed control at 250 g/ha: Rate 250 g/ha; for pest or weed control at 500 g/ha: Rate 500 g/ha
Protocol: as §1

[7] = system: Alopecurus myosuroides (ALOMY); assay: Example A post-emergence herbicidal activity, glasshouse pot test; conditions: Rate 125 g/ha, evaluated 14 or 15 days later, read-out: Post-Emergence Activity ALOMY (100=total damage to plant; 0=no damage to plant)
Protocol: as §1

Avena fatua (AVEFA) [8] = assay: as above; conditions: Rate 125 g/ha, evaluated 14 or 15 days later, read-out: Post-Emergence Activity AVEFA (100=total damage to plant; 0=no damage to plant)
Protocol: as §1

[9] = system: Digitaria sanguinalis (DIGSA); assay: as above; conditions: Rate 125 g/ha, evaluated 14 or 15 days later, read-out: Post-Emergence Activity DIGSA (100=total damage to plant; 0=no damage to plant)
Protocol: as §1

[10] = system: Echinochloa crus-galli (ECHCG); assay: as above; conditions: Rate 125 g/ha, evaluated 14 or 15 days later, read-out: Post-Emergence Activity ECHCG (100=total damage to plant; 0=no damage to plant)
Protocol: as §1

Lolium perenne (LOLPE) [11] = assay: as above; conditions: Rate 125 g/ha, evaluated 14 or 15 days later, read-out: Post-Emergence Activity LOLPE (100=total damage to plant; 0=no damage to plant)
Protocol: as §1

Setaria faberi (SETFA) [12] = assay: as above; conditions: Rate 125 g/ha, evaluated 14 or 15 days later, read-out: Post-Emergence Activity SETFA (100=total damage to plant; 0=no damage to plant)
Protocol: as §1

Compound | pest or weed control at 250 g/ha [1] | pest or weed control at 250 g/ha (Avena fatua (AVEFA) [2]) | pest or weed control at 250 g/ha [3] | pest or weed control at 250 g/ha [4] | pest or weed control at 250 g/ha (Lolium perenne (LOLPE) [5]) | pest or weed control at 250 g/ha (Setaria faberi (SETFA) [6]) | pest or weed control at 125 g/ha [7] | pest or weed control at 125 g/ha (Avena fatua (AVEFA) [8]) | pest or weed control at 125 g/ha [9] | pest or weed control at 125 g/ha [10] | pest or weed control at 125 g/ha (Lolium perenne (LOLPE) [11]) | pest or weed control at 125 g/ha (Setaria faberi (SETFA) [12]) | pest or weed control at 500 g/ha [1] | pest or weed control at 500 g/ha (Avena fatua (AVEFA) [2]) | pest or weed control at 500 g/ha [3] | pest or weed control at 500 g/ha [4] | pest or weed control at 500 g/ha (Lolium perenne (LOLPE) [5]) | pest or weed control at 500 g/ha (Setaria faberi (SETFA) [6])
Cc1sc(-c2ccc(Cl)cc2)nc1C1C(=O)[C@H]2[C@@H]3CC[C@@](C)(O3)[C@H]2C1=O (mixture of isomers) [Compound T24] | 90% | 60% | 100% | 100% | 90% | 100% | 70% | 70% | 90% | 100% | 30% | 80% | – | – | – | – | – | –
CCc1sc(-c2ccc(Cl)cc2)nc1C1C(=O)[C@H]2[C@@H]3CC[C@@](C)(O3)[C@H]2C1=O (mixture of isomers) [Compound T25, 4-[2-(4-chloro-phenyl)-5-ethyl-thiazol-4-yl]-1-methyl-10-oxa-tricyclo[5.2.1.0*2,6*]decane-3,5-dione] | 90% | 90% | 100% | 100% | 100% | 100% | 100% | 100% | 100% | 100% | 50% | 90% | – | – | – | – | – | –
Cc1sc(-c2ccc(Cl)cc2)cc1C1=C(OC(=O)C(C)(C)C)[C@@H]2[C@H](C1=O)[C@H]1CC[C@@H]2O1 (racemic) [Compound P1] | 30% | 0% | 0% | 20% | 30% | 0% | 70% | 80% | 80% | 100% | 60% | 90% | – | – | – | – | – | –
Cc1sc(-c2ccc(Cl)cc2)cc1C1=C(OC(=O)C(C)C)[C@@H]2[C@H](C1=O)[C@H]1CC[C@@H]2O1 (racemic) [Compound P2] | 30% | 0% | 0% | 50% | 50% | 0% | 90% | 90% | 80% | 100% | 70% | 80% | – | – | – | – | – | –
Cc1scc(Br)c1C1C(=O)[C@@H]2[C@H](C1=O)[C@H]1CC[C@@H]2O1 (stereo partly drawn) [Compound T4] | – | – | – | – | – | – | 10% | 30% | 60% | 80% | 40% | 40% | 70% | 70% | 30% | 70% | 70% | 70%
Cc1sc(Br)cc1C1C(=O)[C@@H]2[C@H](C1=O)[C@H]1CC[C@@H]2O1 (stereo partly drawn) [Compound T5] | – | – | – | – | – | – | 10% | 10% | 30% | 0% | 0% | 10% | 0% | 20% | 0% | 0% | 0% | 0%
Cc1sc(-c2ccccn2)cc1C1C(=O)[C@@H]2[C@H](C1=O)[C@H]1CC[C@@H]2O1 (stereo partly drawn) [Compound T6] | – | – | – | – | – | – | 10% | 10% | 20% | 30% | 10% | 40% | 0% | 60% | 0% | 0% | 0% | 0%
Cc1nc(-c2cc(C3C(=O)[C@@H]4[C@H](C3=O)[C@H]3CC[C@@H]4O3)c(C)s2)cs1 (stereo partly drawn) [Compound T7] | – | – | – | – | – | – | 0% | 0% | 0% | 50% | 0% | 0% | 10% | 10% | 20% | 0% | 10% | 0%
Cc1csc(C)c1C1C(=O)[C@@H]2[C@H](C1=O)[C@H]1CC[C@@H]2O1 (stereo partly drawn) [Compound T10] | 10% | 10% | 30% | 30% | 20% | 0% | 10% | 40% | 40% | 60% | 20% | 60% | – | – | – | – | – | –
Cc1sc(-c2ccc(Cl)cc2)cc1C1C(=O)[C@@H]2[C@H](C1=O)[C@H]1CC[C@@H]2O1 (stereo partly drawn) [Compound T12] | – | – | – | – | – | – | 80% | 80% | 80% | 80% | 30% | 70% | 10% | 20% | 0% | 30% | 10% | 20%
CCc1c(Br)sc(C)c1C1C(=O)[C@@H]2[C@H](C1=O)[C@H]1CC[C@@H]2O1 (stereo partly drawn) [Compound T14, 4-(5-bromo-4-ethyl-2-methyl-thiophen-3-yl)-10-oxa-tricyclo[5.2.1.0*2,6*]decane-3,5-dione] | 90% | 60% | 70% | 90% | 100% | 100% | 90% | 100% | 60% | 100% | 80% | 80% | – | – | – | – | – | –
